Laboratory results taken from the NIST ThermoML archive (doi:10.1021/acs.jced.6b00543).
± gives the expanded uncertainty stated by the source.

Tests used:
[1] = Crystal; DTA
[2] = Molar enthalpy of transition or fusion; conditions: Crystal; DSC

For C[C@@H]1O[C@@H](O[C@H]2[C@H](Oc3cc(O)c(C(=O)CCc4ccc(O)cc4)c(O)c3)O[C@H](CO)[C@@H](O)[C@@H]2O)[C@H](O)[C@H](O)[C@H]1O [naringin dihydrochalcone], the Normal melting temperature [1] was 159.07 ± 0.53 °C and the “Molar enthalpy of transition or fusion” value [2] was 29.6 ± 1.9 kJ/mol.
